The supplement of paper PMC10307832

What was measured:
Test in all cases: relative viability (nuclei count vs DMSO), 5 days (fraction); higher = more cells survive
[1] = compound: CC(=O)c1c(C)c2cnc(Nc3ccc(N4CCNCC4)cn3)nc2n(C2CCCC2)c1=O [Palbociclib] + Nc1nc2[nH]cc(CCc3ccc(C(=O)N[C@@H](CCC(=O)O)C(=O)O)cc3)c2c(=O)[nH]1 [Pemetrexed] (partner 0.2 µM)
Procedure, shortened: (§1)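 After 5 days of treatment, lung cancer cells in 1536-well plates were fixed and stained in a single step (final 0.05% Triton X-100, 1% formaldehyde, 1 ug/ml Hoechst) and their nuclei counted on 4× images. Treatment had been applied by pin tool the day after seeding as one drug alone or as a fixed anchor-drug dose with five library-drug doses (not always all listed) in √10 steps. Relative viability is the nuclei count of treated wells divided by that of vehicle wells, and values are medians of duplicate plates.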

[2] = compound: CC(=O)c1c(C)c2cnc(Nc3ccc(N4CCNCC4)cn3)nc2n(C2CCCC2)c1=O [Palbociclib] + NC(=O)Nc1cc(-c2cccc(F)c2)sc1C(=O)N[C@H]1CCCNC1 [AZD7762] (partner 0.2 µM)
Procedure, shortened: as §1

[3] = compound: CC(=O)c1c(C)c2cnc(Nc3ccc(N4CCNCC4)cn3)nc2n(C2CCCC2)c1=O [Palbociclib] + Nc1ncn([C@H]2C[C@H](O)[C@@H](CO)O2)c(=O)n1 [Decitabine] (partner 2 µM)
Procedure, shortened: as §1

[4] = compound: CC(=O)c1c(C)c2cnc(Nc3ccc(N4CCNCC4)cn3)nc2n(C2CCCC2)c1=O [Palbociclib] + N=C(N)NC(=N)NCCc1ccccc1 [Phenformin] (partner 250 µM)
Procedure, shortened: as §1

Row | Cell Line | relative viability ([1]; first compound 0.01 µM) | relative viability ([1]; first compound 0.03162 µM) | relative viability ([1]; first compound 0.1 µM) | relative viability ([1]; first compound 0.3162 µM) | relative viability ([1]; first compound 1 µM) | relative viability ([2]; first compound 0.01 µM) | relative viability ([2]; first compound 0.03162 µM) | relative viability ([2]; first compound 0.1 µM) | relative viability ([2]; first compound 0.3162 µM) | relative viability ([2]; first compound 1 µM) | relative viability ([3]; first compound 0.01 µM) | relative viability ([3]; first compound 0.03162 µM) | relative viability ([3]; first compound 0.1 µM) | relative viability ([3]; first compound 0.3162 µM) | relative viability ([3]; first compound 1 µM) | relative viability ([4]; first compound 0.01 µM) | relative viability ([4]; first compound 0.03162 µM) | relative viability ([4]; first compound 0.1 µM) | relative viability ([4]; first compound 0.3162 µM) | relative viability ([4]; first compound 1 µM)
1 | NCI-H2126 | 0.725 | 0.581 | 0.509 | 0.51 | 0.345 | 0.937 | 0.848 | 0.8 | 0.732 | 0.584 | 0.637 | 0.568 | 0.492 | 0.539 | 0.463 | 0.494 | 0.418 | 0.381 | 0.413 | 0.392
2 | HCC-44 | 0.626 | 0.63 | 0.592 | 0.634 | 0.666 | 1.03 | 0.98 | 0.97 | 0.96 | 1.01 | 0.944 | 0.866 | 0.948 | 0.873 | 1 | 0.234 |  | 0.171 | 0.223 | 0.204
3 | HCC-366 | 0.155 |  | 0.162 | 0.138 | 0.155 | 0.198 |  | 0.43 | 0.232 | 0.11 | 0.338 |  | 0.33 | 0.334 | 0.342 | 0.626 |  | 0.645 | 0.427 | 0.396
4 | NCI-H1792 | 0.984 | 0.557 | 0.438 | 0.427 | 0.264 | 0.663 | 0.559 | 0.462 | 0.576 | 0.185 | 0.567 | 0.432 | 0.597 | 0.469 | 0.389 | 0.389 | 0.237 | 0.209 | 0.193 | 0.1
5 | NCI-H1355 | 1.13 | 0.548 | 0.947 | 0.912 | 0.739 | 0.672 | 0.572 | 0.733 | 0.697 | 0.571 | 0.348 | 0.379 | 0.352 | 0.351 | 0.342 | 0.511 | 0.39 | 0.387 | 0.385 | 0.26
6 | HCC-827 | 0.228 | 0.251 | 0.257 | 0.261 | 0.243 | 0.245 | 0.211 | 0.202 | 0.203 | 0.168 | 0.369 | 0.294 | 0.289 | 0.314 | 0.265 | 0.41 | 0.285 | 0.319 | 0.384 | 0.289
7 | NCI-H2085 | 0.823 | 0.798 | 0.752 | 0.6 | 0.485 | 1.06 | 0.912 | 0.942 | 0.76 | 0.473 | 0.555 | 0.55 | 0.65 | 0.534 | 0.538 | 0.667 | 0.555 | 0.616 | 0.592 | 0.399
